# According to patent US10577374B2, “Bruton's tyrosine kinase inhibitors” (priority 2009, dated 2020):
# Target: BTK (Homo sapiens (Human), UniProt Q06187)
# Assay: In vitro BTK kinase assay: BTK-POLYGAT-LS ASSAY
# Assay type: biochemical
# Conditions: read-out: IC50 (10 uM ATP), polyGAT 100 nM, BTK 0.25 nM
# Chain of BTK (Q06187 whole entry): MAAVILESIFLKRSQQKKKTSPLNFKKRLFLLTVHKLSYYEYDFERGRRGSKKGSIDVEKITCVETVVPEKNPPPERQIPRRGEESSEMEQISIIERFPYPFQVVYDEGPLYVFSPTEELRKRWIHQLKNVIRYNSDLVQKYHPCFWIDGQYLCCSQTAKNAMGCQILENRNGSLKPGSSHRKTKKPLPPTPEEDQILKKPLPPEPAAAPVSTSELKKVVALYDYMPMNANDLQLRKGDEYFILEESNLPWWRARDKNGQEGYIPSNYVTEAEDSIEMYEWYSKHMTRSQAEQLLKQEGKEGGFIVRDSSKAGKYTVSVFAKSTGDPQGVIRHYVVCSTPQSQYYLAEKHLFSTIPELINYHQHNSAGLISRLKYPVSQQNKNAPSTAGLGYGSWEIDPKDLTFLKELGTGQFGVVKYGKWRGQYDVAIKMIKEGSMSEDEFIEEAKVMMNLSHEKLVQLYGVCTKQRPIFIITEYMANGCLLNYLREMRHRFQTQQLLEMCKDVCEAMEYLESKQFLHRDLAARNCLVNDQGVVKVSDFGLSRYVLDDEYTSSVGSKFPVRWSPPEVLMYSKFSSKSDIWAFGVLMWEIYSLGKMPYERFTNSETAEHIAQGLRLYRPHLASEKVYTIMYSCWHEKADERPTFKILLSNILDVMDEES
substance,measurement,value
"1-(3-(1-(methylsulfonyl)-4-(7H-pyrrolo[2,3-d]pyrimidin-4-yl)piperazin-2-yl)phenyl)-3-phenylurea [compound 128]",IC50,> 10 µM
